Measured values as given in PubChem BioAssay (NCI).
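Where inhibition never reached the appropriate level, the endpoint shown equals the highest concentration tested. Otherwise, values were interpolated linearly from a five-concentration, 48-hour dose response in 96-well plates. GI50 = concentration required for 50% inhibition of growth. TGI is the concentration that stops growth completely.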

What was measured:
Experiment in all cases: NCI anticancer screen, dose series, 48 h
MDA-MB-435 = system: MDA-MB-435
COLO 205 colon = system: COLO 205 colon
MALME-3M melanoma = system: MALME-3M melanoma
OVCAR-8 ovarian = system: OVCAR-8 ovarian
MOLT-4 leukemia = system: MOLT-4 leukemia
RXF 393 renal = system: RXF 393 renal
HCC-2998 colon = system: HCC-2998 colon
NCI-H460 lung = system: NCI-H460 lung
EKVX NSCLC = system: EKVX NSCLC
LOX IMVI melanoma = system: LOX IMVI melanoma

Row | SMILES | GI50 (MDA-MB-435) | TGI (MDA-MB-435) | GI50 (COLO 205 colon) | TGI (COLO 205 colon) | GI50 (MALME-3M melanoma) | TGI (MALME-3M melanoma) | GI50 (OVCAR-8 ovarian) | TGI (OVCAR-8 ovarian) | GI50 (MOLT-4 leukemia) | TGI (MOLT-4 leukemia) | GI50 (RXF 393 renal) | TGI (RXF 393 renal) | GI50 (HCC-2998 colon) | TGI (HCC-2998 colon) | GI50 (NCI-H460 lung) | TGI (NCI-H460 lung) | GI50 (EKVX NSCLC) | TGI (EKVX NSCLC) | GI50 (LOX IMVI melanoma) | TGI (LOX IMVI melanoma)
1 | FC(F)(F)c1ccc(-c2cnc(-c3ncon3)nc2NC2CCCCCC2)cc1 | 71.3 µM | > 100 µM | 27.7 µM | 84.8 µM | 49.8 µM | > 100 µM | 32.2 µM | > 100 µM | 19.8 µM | 55 µM | 28.9 µM | > 100 µM | 56.6 µM | > 100 µM | 37.2 µM | > 100 µM | – | – | – | –
2 | N#CC1(C(N)=O)C(c2ccc(Cl)cc2)CC(=O)CC1c1ccc(Cl)cc1 (centres undefined) | 16.3 µM | 33.2 µM | 15.6 µM | 30.4 µM | 15.7 µM | 33.4 µM | 18.4 µM | 42.2 µM | 17.1 µM | 54.3 µM | – | – | 14.8 µM | 29.9 µM | 17.4 µM | 33.4 µM | 15.5 µM | 32.7 µM | 17 µM | 33.3 µM
3 | COc1cc2c3c(n(C)c(=O)c2cc1OC)-c1cc2c(cc1/C3=C\CCCCN1C(=O)c3ccccc3C1=O)OCO2 | > 100 µM | > 100 µM | 6.28 µM | > 100 µM | – | – | 17.1 µM | > 100 µM | 2.07 µM | 13.4 µM | 56.5 µM | > 100 µM | 12.2 µM | 58.7 µM | 3.52 µM | 43.7 µM | – | – | 10.7 µM | 22.5 µM
4 | CCCCCCCCCCCCCCCCCC[n+]1ccc2c(C)c3c(c(C)c2c1)c1cc(O)ccc1n3CC | – | – | – | – | – | – | 1.71 µM | 6.53 µM | 2.53 µM | 14.9 µM | 1.57 µM | 3.89 µM | 2.9 µM | 20.6 µM | 1.72 µM | 4.18 µM | 2.15 µM | 9.93 µM | 2.73 µM | 10.3 µM
5 | O=C1OC(Cc2ccccc2)(N2CCCC2=O)C1c1ccccc1 (centres undefined) | – | – | – | > 100 µM | – | > 100 µM | – | > 100 µM | – | > 100 µM | – | – | – | – | – | > 100 µM | – | > 100 µM | – | –
6 | O=C(NC1CCCCC1)NS(=O)(=O)c1ccc2c(c1)CCC2 | – | – | – | > 100 µM | – | > 100 µM | – | > 100 µM | – | > 100 µM | – | > 100 µM | – | > 100 µM | – | – | – | > 100 µM | – | > 100 µM
7 | Cc1[nH]c2ccccc2c1C(=O)CC1(O)C(=O)Nc2c(Cl)cc(Cl)cc21 (centres undefined) | – | – | – | 61.7 µM | – | 36.1 µM | – | 70.4 µM | – | 55.1 µM | – | 39.2 µM | – | > 100 µM | – | > 100 µM | – | – | – | 72.5 µM
8 | Cc1ccc(/C=C/C(=O)C(C)(C)CN2CCCCC2)cc1 | – | – | – | 17.2 µM | – | 29.3 µM | – | 10.3 µM | – | 7.55 µM | – | 18.7 µM | – | 28.8 µM | – | 23.5 µM | – | 14.3 µM | – | 23.4 µM
9 | CC#CCC1CCC(OCC)=CC1=O (centres undefined) | – | – | – | > 100 µM | – | – | – | > 100 µM | – | > 100 µM | – | > 100 µM | – | – | – | > 100 µM | – | > 100 µM | – | > 100 µM
10 | CCC(=O)C12OC3OC(C)(C)OC3C1OC(C)(C)O2 (centres undefined) | – | – | – | – | – | > 100 µM | – | > 100 µM | – | > 100 µM | – | > 100 µM | – | > 100 µM | – | > 100 µM | – | > 100 µM | – | –
